Key:
[1] = molecular target: human GABAA α5β2γ1 receptor (Homo sapiens (Human), UniProt P31644+Q8N1C3); assay: Radioligand binding assay, [3H]RO7239181 competition, γ1-containing GABAA subtypes; details: HEK293F membranes, mean of two determinations
Method: The affinity of compounds at GABAA γ1 subunit-containing receptors was measured by competition for [^3H]RO7239181 (67.3 Ci/mmol; Roche) binding to membranes from HEK293F cells (ThermoFisher R79007) expressing human (transiently transfected) receptors of composition α5β2γ1, α2β2γ1, α1β2γ1. For better protein expression of the α2 subunit-containing receptors, the 28 amino acid long signal peptide (Met1 to Ala28) of the human GABAA α2 subunit was substituted by the 31 amino acid long signal peptide (Met1 to Ser31) of human GABAA α5 subunit.
Harvested pellets from HEK293F cells expressing the different GABAA receptor subtypes were resuspended in Mannitol Buffer pH 7.2-7.4 (Mannitol 0.29M, Triethylamine 10 mM, Acetic acid 10 mM, EDTA 1 mM plus protease inhibitors (20 tablets Complete, Roche Diagnostics Cat. No. 05 056 489 001 per liter)), washed two times and then resuspended at 1:10 to 1:15 dilution in the same buffer. Cell disruption was performed by stirring the suspension in a Parr vessel #4637 at 435 psi for 15 minutes, and then the suspensions were centrifuged at 1000×g for 15 minutes at 4° C. (Beckman Avanti J-HC; rotor JS)-4.2). The supernatant (S1) was transferred in a 21 Schott flask and the pellet (P1) was resuspended with Mannitol Buffer up to 175 ml. The resuspended pellet was transferred into a 250 ml Corning centrifugal beaker and centrifuged at 1500×g for 10 minutes at 4° C. (Beckman Avanti J-HC; rotor JS)-4.2). The supernatant (S1) was then transferred in the 21 Schott flask and the pellet was discarded. The supernatants (S1) were centrifuged in 500 ml Beckman polypropylene centrifugal beaker at 15,000×g for 30 minutes at 4° C. (Beckman Avanti J-20 XP; rotor JLA-10.500). The pellet (P2) was resuspended with Mannitol Buffer 1:1 and frozen at −80° C. The supernatant (S2) was centrifuged in 100 ml Beckman polypropylene centrifugal tubes at 48000×g for 50 minutes at […] (Beckman Avanti J-20 XP; rotor JA-18). The supernatant (S3) was discarded and the pellet (P3) was resuspended with 1:1 Mannitol Buffer. The P2 and P3 protein concentration was determined with the BIORAD Standard assay method with bovine serum albumin as standard and measured on the NANO-Drop 1000. The membrane suspension was aliquots (500 μl per tube) and stored at −80° C. until required.
Membrane homogenates were resuspended and polytronised (Polytron PT1200E Kinematica AG) in Potassium Phosphate 10 mM, KCl 100 mM binding buffer at pH 7.4 to a final assay concentration determined with a previous experiment.
Radioligand binding assays were carried out in a volume of 200 µL (96-well plates) which contained 100 μL of cell membranes, [^3H]RO7239181 at a concentration of 1.5 nM (α5β2γ1) or 20-30 nM (α1β2γ1, 2β2γ1) and the test compound in the range of [0.3-10000]×10^−9 M. Nonspecific binding was defined by 10×10^−6 (α5β2γ1) and 30×10^−6 M RO7235136 and typically represented less than 5% (α5β2γ1) and less than 20% (α1β2γ1, α2β2γ1) of the total binding. Assays were incubated to equilibrium for 1 hour at 4° C. and then, membranes were filtered onto unifilter (96-well white microplate with bonded GF/C filters preincubated 20-50 minutes in 0.3% Polyethylenimine) with a Filtermate 196 harvester (Packard BioScience) and washed 4 times with cold Potassium Phosphate 10 mM pH 7.4, KCl 100 mM binding buffer. After drying, filter-retained radioactivity was detected by liquid scintillation counting. K, values were calculated using Excel-Fit (Microsoft) and are the means of two determinations.
Representative test results, obtained by the above described assay measuring binding affinity to HEK293 cells expressing human (h) receptors, are shown in the Table 1.

[2] = molecular target: human GABAA α1β3γ2 receptor (Homo sapiens (Human), UniProt P14867+P18507); assay: Radioligand binding assay, [3H]Flumazenil competition, γ2-containing GABAA subtypes; details: HEK293F membranes, [3H]Flumazenil 1 nM, mean of two determinations; read-out: Ki h-GABAA α1β3γ2
Method: The affinity of compounds at GABAA γ2 subunit-containing receptors was measured by competition for [^3H]Flumazenil (81.1 Ci/mmol; Roche) binding to HEK293F cells expressing human (transiently transfected) receptors of composition α1β3γ2.
Harvested pellets from HEK293F cells expressing the different GABAA γ2 receptor subtypes were resuspended in Mannitol Buffer pH 7.2-7.4 and processed as described above for the cells expressing the GABAA γ1 subunit-containing receptors.
Assays were incubated to equilibrium for 1 hour at 4° C. and harvested onto GF/C uni-filters (Packard) by filtration using a Packard harvester and washing with ice-cold wash buffer (50 mM Tris; pH 7.5). After drying, filter-retained radioactivity was detected by liquid scintillation counting. Ki values were calculated using Exel-Fit (Microsoft) and are the means of two determinations.

SMILES	Ki [1] [nM]	Ki [2] [nM]
C[C@@H]1N=C(c2ncccc2F)c2c(ccc(Br)c2Cl)-n2cnnc21 [Example 84, (4S)-8-bromo-7-chloro-6-(3-fluoro-2-pyridyl)-4-methyl-4H-[1,2,4]triazolo[4,3-a][1,4]benzodiazepine]	6.5	1210
Cc1nnc2n1-c1ccc(Br)c(Cl)c1C(c1ncccc1F)=N[C@H]2C [Example 85, (4S)-8-bromo-7-chloro-6-(3-fluoro-2-pyridyl)-1,4-dimethyl-4H-[1,2,4]triazolo[4,3-a][1,4]benzodiazepine]	3.3	705
Cc1ccc(-c2nnc3n2-c2ccc(Cl)c(Cl)c2C(c2c(F)cccc2F)=N[C@H]3C)nn1 [Example 86, (4S)-7,8-dichloro-6-(2,6-difluorophenyl)-4-methyl-1-(6-methylpyridazin-3-yl)-4H-[1,2,4]triazolo[4,3-a][1,4]benzodiazepine]	1.4	860
Cc1cc(-c2nnc3n2-c2ccc(Cl)c(Cl)c2C(c2c(F)cccc2F)=N[C@H]3C)on1 [Example 87, 5-[(4S)-7,8-dichloro-6-(2,6-difluorophenyl)-4-methyl-4H-[1,2,4]triazolo[4,3-a][1,4]benzodiazepin-1-yl]-3-methyl-isoxazole]	2.1	532
Cc1ccc(-c2nnc3n2-c2ccc(Cl)c(Br)c2C(c2c(F)cccc2F)=N[C@H]3C)nn1 [Example 88, (4S)-7-bromo-8-chloro-6-(2,6-difluorophenyl)-4-methyl-1-(6-methylpyridazin-3-yl)-4H-[1,2,4]triazolo[4,3-a][1,4]benzodiazepine]	3.6	1450
C[C@@H]1N=C(c2c(F)cccc2F)c2c(ccc(Cl)c2Br)-n2c1n[nH]c2=O [Example 89, (4S)-7-bromo-8-chloro-6-(2,6-difluorophenyl)-4-methyl-2,4-dihydro-[1,2,4]triazolo[4,3-a][1,4]benzodiazepin-1-one]	4.3	1460
Cc1nnc2n1-c1ccc(C(F)(F)F)c(Cl)c1C(c1c(F)cccc1F)=N[C@H]2C [Example 92, (4S)-7-chloro-6-(2,6-difluorophenyl)-1,4-dimethyl-8-(trifluoromethyl)-4H-[1,2,4]triazolo[4,3-a][1,4]benzodiazepine]	1.8	2230
Cc1nnc2n1-c1ccc(C(C)(F)F)c(Cl)c1C(c1c(F)cccc1F)=N[C@H]2C [Example 93, (4S)-7-chloro-8-(1,1-difluoroethyl)-6-(2,6-difluorophenyl)-1,4-dimethyl-4H-[1,2,4]triazolo[4,3-a][1,4]benzodiazepine]	3.1	5960
Cc1cc(-c2nnc3n2-c2ccc(Cl)c(Cl)c2C(c2c(F)cccc2F)=N[C@H]3C)ncn1 [Example 94, (4S)-7,8-dichloro-6-(2,6-difluorophenyl)-4-methyl-1-(6-methylpyrimidin-4-yl)-4H-[1,2,4]triazolo[4,3-a][1,4]benzodiazepine]	2	609
Cc1nccc(-c2nnc3n2-c2ccc(Cl)c(Cl)c2C(c2c(F)cccc2F)=N[C@H]3C)n1 [Example 95, (4S)-7,8-dichloro-6-(2,6-difluorophenyl)-4-methyl-1-(2-methylpyrimidin-4-yl)-4H-[1,2,4]triazolo[4,3-a][1,4]benzodiazepine]	1.5	466
Cc1cc(-c2nnc3n2-c2ccc(Cl)c(Cl)c2C(c2c(F)cccc2F)=N[C@H]3C)nc(C)n1 [Example 96, (4S)-7,8-dichloro-6-(2,6-difluorophenyl)-1-(2,6-dimethylpyrimidin-4-yl)-4-methyl-4H-[1,2,4]triazolo[4,3-a][1,4]benzodiazepine]	3	473
Cc1ccc2c(c1Cl)C(c1c(F)cccc1F)=N[C@@H](C)c1nnc(C)n1-2 [Example 97, (4S)-7-chloro-6-(2,6-difluorophenyl)-1,4,8-trimethyl-4H-[1,2,4]triazolo[4,3-a][1,4]benzodiazepine]	2.5	425
CC[C@@H]1N=C(c2c(F)cccc2F)c2c(ccc(Br)c2Cl)-n2c(C)nnc21 [Example 98, (4S)-8-bromo-7-chloro-6-(2,6-difluorophenyl)-4-ethyl-1-methyl-4H-[1,2,4]triazolo[4,3-a][1,4]benzodiazepine]	4.4	1460
Cc1nnc2n1-c1ccc(C(F)F)c(Cl)c1C(c1c(F)cccc1F)=N[C@H]2C [Example 99, (4S)-7-chloro-8-(difluoromethyl)-6-(2,6-difluorophenyl)-1,4-dimethyl-4H-[1,2,4]triazolo[4,3-a][1,4]benzodiazepine]	3.2	2020
COC[C@@H]1N=C(c2c(F)cccc2F)c2c(ccc(Br)c2Cl)-n2c(C)nnc21 [Example 100, (4R)-8-bromo-7-chloro-6-(2,6-difluorophenyl)-4-(methoxymethyl)-1-methyl-4H-[1,2,4]triazolo[4,3-a][1,4]benzodiazepine]	3.4	288
Cc1nnc2n1-c1ccc(Br)c(Cl)c1C(c1c(F)cccc1F)=N[C@H]2CO [Example 101, [(4R)-8-bromo-7-chloro-6-(2,6-difluorophenyl)-1-methyl-4H-[1,2,4]triazolo[4,3-a][1,4]benzodiazepin-4-yl]methanol]	1	495
Cc1nnc2n1-c1ccc(I)c(Cl)c1C(c1c(F)cccc1F)=N[C@H]2C [Example 102, (4S)-7-chloro-6-(2,6-difluorophenyl)-8-iodo-1,4-dimethyl-4H-[1,2,4]triazolo[4,3-a][1,4]benzodiazepine]	0.8	278
C[C@@H]1N=C(c2c(F)cccc2F)c2c(ccc(C(F)(F)F)c2Cl)-n2c(CO)nnc21 [Example 103, [(4S)-7-chloro-6-(2,6-difluorophenyl)-4-methyl-8-(trifluoromethyl)-4H-[1,2,4]triazolo[4,3-a][1,4]benzodiazepin-1-yl]methanol]	5.4	3380
COC[C@@H]1N=C(c2c(F)cccc2F)c2c(ccc(C(F)(F)F)c2Cl)-n2c(C)nnc21 [Example 105, (4R)-7-chloro-6-(2,6-difluorophenyl)-4-(methoxymethyl)-1-methyl-8-(trifluoromethyl)-4H-[1,2,4]triazolo[4,3-a][1,4]benzodiazepine]	20.1	7340
Cc1nnc2n1-c1ccc(C(F)(F)F)c(Cl)c1C(c1c(F)cccc1F)=N[C@H]2CO [Example 106, [(4R)-7-chloro-6-(2,6-difluorophenyl)-1-methyl-8-(trifluoromethyl)-4H-[1,2,4]triazlo[4,3-a][1,4]benzodiazepin-4-yl]methanol]	4.3	7640
C[C@@H]1N=C(c2c(F)cccc2F)c2c(ccc(C(F)(F)F)c2Cl)-n2cnnc21 [Example 107, (4S)-7-chloro-6-(2,6-difluorophenyl)-4-methyl-8-(trifluoromethyl)-4H-[1,2,4]triazolo[4,3-a][1,4]benzodiazepine]	3	3530

Reference: patent US20240002393A1, “SUBSTITUTED BENZO[f][l ,2,4JTRIAZOL0[4,3-a][l ,4J[…] GABA A GAMMA! POSITIVE ALLOSTERIC MODULATORS” (Hoffmann-La Roche Inc., priority 2020, published 2024)
